How the values were obtained:
[1] = test system: superoxide production in PMN; test: Superoxide production in PMN of apoE-deficient mice, lucigenin chemiluminescence; type: in vivo; settings: controls 519,000±115,000
Method: ApoE-deficient mice were treated daily with DM 5 mg/kg/day (n=9), 10 mg/kg/day (n=9), 20 mg/kg/day (n=9) or 40 mg/kg/day (n=11) for 10 weeks. Production of superoxide in PMN (1×10^6 cells/mL PBS) (A) was measured by lucigenin-enhanced chemiluminescence. The results are expressed as mean±SD. (P<0.05, control versus 10 mg/kg/day; P<0.001, control versus 20 mg/kg/day and 40 mg/kg/day). Production of superoxide in the thoracic aorta (B) was also measured by lucigenin-enhanced chemiluminescence. The results are expressed as mean±SD. (P<0.05, control versus 10 mg/kg/day and 40 mg/kg/day; P<0.01, control versus 20 mg/kg/day).
(§1) Having established the DM inhibitory effect on macrophage activation and NADPH oxidase, we next examined the functional consequences of which in vivo. […] Sections of left carotid arteries from the mice were stained with DHE and then imaged with a laser scanning confocal microscope.

[2] = test system: superoxide production in left carotid arteries; test: Superoxide in left common carotid artery of apoE-deficient mice, DHE staining; type: in vivo
Method: Representative photomicrographs of the […] sections in apoE-deficient mice were treated daily with water only (A) or DM 5 mg/kg/day (B), 10 mg/kg/day (C), 20 mg/kg/day (D) or 40 mg/kg/day (E) for 10 weeks. […] The results are representative of 4 independent experiments with 6-8 independently analyzed mice/group. (bar=50 μm)
as §1

[3] = test system: macrophage NADPH oxidase; test: Macrophage NADPH oxidase activity after LPS, lucigenin chemiluminescence; type: cell-based, human; settings: LPS alone 3,310,000±1,670,000
Method: THP-1 cell culture was pretreated for 1 hour with the indicated concentrations of DM before stimulation with 100 ng/mL LPS. Lysis buffer was added to the cells and centrifuged. The supernatant was discarded and the pellet was resuspended. NADPH oxidase activity was measured by mixing 30 μg protein, 5 μM lucigenin, and 100 μM NADPH. Chemiluminescence was determined every 10 seconds for 15 minutes. Data are presented as mean±SD (n=8-15). ***P<0.001 compared with the LPS-treated cells.

[4] = test system: MCP-1 release from THP-1 cells after oxLDL stimulation; test: oxLDL-induced MCP-1 release in THP-1 macrophage culture (ELISA); type: cell-based, human; settings: 0.01 μM pretreatment, oxLDL alone 2.23±0.34
Method: (§2) THP-1 cells were grown in the RPMI-1640 medium containing 10% fetal bovine serum at 37° C. in 5% CO2. The cells were differentiated to macrophages after treatment of the culture with 100 nM PMA for 24 hours. The cell suspension (5×10^5) was added in 0.5 mL into each well of the tissue culture plates. […] LPS was dissolved in sterile water and stored at −70° C. in aliquots. LDL was isolated from human endotoxin-free heparin plasma and was oxidized using CuSO4. In brief, LDL (1 mL, 1 mg/mL) was dialyzed in 500 mL phosphate-buffered saline (PBS, pH 7.4) overnight. Copper sulfate was added to a final concentration of 5 μM, and the LDL was allowed to oxidize at room temperature for 24 hours.
(§3) The supernatants were harvested and the TNF-α, IL-6, and MCP-1 levels were determined by ELISA. Superoxide production in the THP-1 cell culture was measured by lucigenin-enhanced chemiluminescence as described previously (Khadour F H, Panas D, Ferdinandy P, et al. Am J Physiol Heart Circ Physiol, 28:H1108-15 2002). LPS-treated THP-1 cells were treated with PBS containing 1.25 mM lucigenin, and counts were obtained for a 10-minute period in a luminometer (Berthold Technologies, Germany) as relative light units (RLU) emitted. Background counts determined in cell-free preparations were subtracted. […]

[5] = test system: CD45-positive cells in lungs; test: Pulmonary inflammatory cell (CD45-positive) infiltration in LPS-treated mice, immunofluorescence; type: in vivo; settings: LPS only 103±16
Method: (§4) All mice then received 20 mg/kg LPS by intraperitoneal injection. Blood samples were obtained at 6 hours after LPS injection from a catheter placed in the left carotid artery. Blood samples were centrifuged, and the plasma TNF-α levels were measured by ELISA. Lungs were harvested from the animals 6 hours after LPS injection in each group as described above. The tissues were fixed in 4% paraformaldehyde and embedded in paraffin for histopathological examination. The presence of inflammatory cells in lungs was determined by immunofluorescence. The sections were incubated with rat monoclonal antibody against mouse CD45, a leukocyte common antigen (1:50 dilution, Pharmingen). After washing, fluorescein isothiocyanate-conjugated sheep […] immunoglobulin (Amersham Pharmacia Biotech) was applied as a secondary antibody. […] The total CD45-positive cell number was counted in five randomly selected sections under high power field magnification (400×) for each mouse. Oxidative fluorescent microtopography with the oxidative fluorescent dye dihydroethidium (DHE) was used to evaluate the in situ production of superoxide in aorta. Aortas were harvested from the animals at 6 hours after LPS injection in each group as described above. Unfixed frozen ring segments were cut into 30-μm-thick sections and placed on a glass slide. DHE (10 μM) was topically applied to each tissue section and a cover slip was applied. Slides were incubated in a light-protected humidified chamber at 37° C. for 30 minutes. Fluorescence was detected with a laser scanning confocal microscope (Leica Microsystems, Germany) with excitation at 488-nm and detection at 585-nm using a long-pass filter.

[6] = test system: plasma TNF-α; test: Plasma TNF-α in LPS-treated FVB mice (ELISA); type: in vivo; settings: 6 h, LPS only 576.1±43.6
Method: as §4

[7] = test system: MCP-1 release from THP-1 cells after LPS stimulation; test: LPS-induced MCP-1 release in THP-1 macrophage culture (ELISA); type: cell-based, human; settings: 1 μM pretreatment, LPS alone 9.22±1.17
Method: as §2, §3

[8] = test system: superoxide production in aorta; test: Superoxide in aorta of LPS-treated mice, DHE oxidative fluorescent microtopography; type: in vivo
Method: as §4, with “Aortas were harvested from the animals at 6 hours after LPS injection in each group as described above. Unfixed frozen ring segments were cut into 30-μm-thick sections and placed on a glass slide. DHE (10 μM) was topically applied to each tissue section and a cover slip was applied. Slides were incubated in a light-protected humidified chamber at 37° C. for 30 minutes.” left out

SMILES | PMN production of superoxide ([1]; 5 mg/kg/day 10 weeks, P=NS) | PMN production of superoxide ([1]; 10 mg/kg/day 10 weeks) | PMN production of superoxide ([1]; 20 mg/kg/day 10 weeks) | PMN production of superoxide ([1]; 40 mg/kg/day 10 weeks) | DHE staining (superoxide), FIG. 14 ([2]; DM 5, 10, 20 or 40 mg/kg/day for 10 weeks vs water only) | DHE fluorescence intensity in sections of left carotid arteries (superoxide) ([2]; DM 10, 20, and 40 mg/kg/day for 10 weeks) | NADPH oxidase activity ([3]; DM 0.01 μM pretreatment) | NADPH oxidase activity ([3]; DM 0.1 μM pretreatment) | NADPH oxidase activity ([3]; DM 1 μM pretreatment) | MCP-1 in medium [4] [ng/mL] | infiltration of inflammatory cells in the lungs (CD45-positive cell number) ([5]; 10 mg/kg i.p. before LPS) | infiltration of inflammatory cells in the lungs (CD45-positive cell number) ([5]; 20 mg/kg i.p. before LPS) | infiltration of inflammatory cells in the lungs (CD45-positive cell number) ([5]; 25 mg/kg i.p. before LPS) | plasma TNF-α level ([6]; 10 mg/kg i.p. before 20 mg/kg LPS) [pg/mL] | plasma TNF-α level ([6]; 20 mg/kg i.p. before 20 mg/kg LPS) [pg/mL] | plasma TNF-α level ([6]; 25 mg/kg i.p. before 20 mg/kg LPS) [pg/mL] | MCP-1 in medium [7] [ng/mL] | DHE staining of aorta (superoxide), FIG. 5 ([8]; 20 mg/kg naloxone pretreatment 1 hour before LPS) | DHE fluorescence intensity in aortic sections (superoxide) ([8]; 10, 20, and 25 mg/kg pretreatment, LPS-treated mice)
COc1ccc2c(c1)[C@]13CCCC[C@@H]1[C@H](C2)N(C)CC3 [DM, (+)-3-methoxy-17-methyl-9α,13α,14α-morphinan] | 460,000±138,000 RLU/15 min | 390,000±63,000 RLU/15 min | 328,000±82,000 RLU/15 min | 328,000±82,000 RLU/15 min | staining was much more reduced | significantly reduced the increase of fluorescence intensity | 1,360,000±860,000 RLU/15 min/mL | 1,280,000±540,000 RLU/15 min/mL | 1,400,000±730,000 RLU/15 min/mL |  |  |  |  |  |  |  |  |  | 
C=CCN1CC[C@]23c4c5ccc(O)c4O[C@H]2C(=O)CC[C@@]3(O)[C@H]1C5 [Naloxone, 17-allyl-4,5α-epoxy-3,14-dihydroxymorphinan-6-one] |  |  |  |  |  |  |  |  |  | 0.95 ± 0.28 | 74±10 | 58±15 | 62±12 | 452.9 ± 55.0 | 251.9 ± 59.6 | 288.0 ± 33.9 | 6.16 ± 0.16 | staining was much more reduced | significantly reduced the increase of fluorescence intensity

— patent US7820689B2, “Methods and compositions for preventing or treating cardiovascular disease” (priority 2006, dated 2010)
